Key:
Fms = biological target: T1, Fms (Homo sapiens, UniProt P07333); assay: Fms biochemical assay (AlphaScreen or 33P-ATP); conditions: under the test conditions employed; read-out: IC50 toward kinase Fms
T1 construct: purchased Upstate Biotech 14-551
Text: Each sample was at 5% DMSO.

B-Raf V600E = B-Raf V600E (Homo sapiens, UniProt P15056, V600E); assay: B-Raf V600E kinase activity assay; assay type: biochemical; conditions: under the test conditions employed; read-out: IC50 toward kinase B-Raf V600E
Sequence of B-Raf V600E (P15056 whole entry V600E): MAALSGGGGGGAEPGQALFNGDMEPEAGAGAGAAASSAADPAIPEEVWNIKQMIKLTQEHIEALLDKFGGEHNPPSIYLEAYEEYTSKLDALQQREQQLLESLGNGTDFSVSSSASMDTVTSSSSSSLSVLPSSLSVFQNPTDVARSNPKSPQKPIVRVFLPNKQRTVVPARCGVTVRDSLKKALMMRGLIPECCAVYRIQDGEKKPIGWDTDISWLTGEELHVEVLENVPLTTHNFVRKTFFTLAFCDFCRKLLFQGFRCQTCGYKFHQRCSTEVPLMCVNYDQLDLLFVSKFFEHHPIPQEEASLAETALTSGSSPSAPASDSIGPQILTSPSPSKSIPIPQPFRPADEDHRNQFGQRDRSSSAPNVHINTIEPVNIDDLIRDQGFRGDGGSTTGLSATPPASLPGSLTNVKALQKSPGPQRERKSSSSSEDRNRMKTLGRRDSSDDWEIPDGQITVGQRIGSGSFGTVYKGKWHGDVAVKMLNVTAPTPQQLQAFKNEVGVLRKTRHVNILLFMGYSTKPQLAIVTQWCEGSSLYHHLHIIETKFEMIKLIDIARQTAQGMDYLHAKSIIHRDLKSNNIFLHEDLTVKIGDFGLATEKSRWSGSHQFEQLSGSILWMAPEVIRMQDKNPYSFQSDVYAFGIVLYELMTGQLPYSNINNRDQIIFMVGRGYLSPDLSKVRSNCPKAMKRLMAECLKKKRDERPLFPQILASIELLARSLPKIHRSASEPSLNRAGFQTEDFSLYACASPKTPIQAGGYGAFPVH

Kit = biological target: T2, Kit (Homo sapiens, UniProt P10721); assay: c-kit biochemical assay (AlphaScreen or 33P-ATP); conditions: under the test conditions employed; read-out: IC50 toward kinase Kit
T2 construct: P1332.N6 BI PTP KIT M552-K948-X COD; made in house; host or cells: E. coli BL21(DE3)RIL, co-expressed with PTP1B
T2 sequence (P10721 552-948): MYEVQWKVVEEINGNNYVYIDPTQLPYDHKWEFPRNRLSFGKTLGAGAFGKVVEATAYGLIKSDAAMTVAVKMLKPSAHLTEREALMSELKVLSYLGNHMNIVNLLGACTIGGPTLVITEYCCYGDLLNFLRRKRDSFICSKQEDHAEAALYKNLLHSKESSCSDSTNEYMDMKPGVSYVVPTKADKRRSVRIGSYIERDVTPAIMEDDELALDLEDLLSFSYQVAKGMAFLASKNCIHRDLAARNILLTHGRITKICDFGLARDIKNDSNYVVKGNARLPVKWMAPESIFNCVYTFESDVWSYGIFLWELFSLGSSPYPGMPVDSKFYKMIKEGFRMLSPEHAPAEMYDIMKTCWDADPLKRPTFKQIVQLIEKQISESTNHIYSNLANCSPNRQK
Protocol: C-kit kinase was at 1 ng per sample.
The c-kit enzyme used in the above assay was either obtained from Cell Signaling Technology (Cat. #7754) or was prepared as follows: A plasmid encoding kit (DNA and encoded protein sequences shown below) was engineered using common polymerase chain reaction (PCR) methods. Complementary DNA cloned from various human tissues were purchased from Invitrogen, and these were used as substrates in the PCR reactions. Specific custom synthetic oligonucleotide primers were designed to initiate the PCR product, and also to provide the appropriate restriction enzyme cleavage sites for ligation with the plasmids. The entire sequence encoding the enzyme was made through a gene synthesis procedure, using custom synthetic oligonucleotides covering the entire coding sequence (Invitrogen, see below).

TrkA = biological target: T3, TrkA (Homo sapiens, UniProt P04629); assay: TrkA biochemical assay (AlphaScreen); conditions: under the test conditions employed; read-out: IC50 toward kinase TrkA
T3 construct: purchased Upstate Biotech 14-571
T3 sequence (P04629 33-796): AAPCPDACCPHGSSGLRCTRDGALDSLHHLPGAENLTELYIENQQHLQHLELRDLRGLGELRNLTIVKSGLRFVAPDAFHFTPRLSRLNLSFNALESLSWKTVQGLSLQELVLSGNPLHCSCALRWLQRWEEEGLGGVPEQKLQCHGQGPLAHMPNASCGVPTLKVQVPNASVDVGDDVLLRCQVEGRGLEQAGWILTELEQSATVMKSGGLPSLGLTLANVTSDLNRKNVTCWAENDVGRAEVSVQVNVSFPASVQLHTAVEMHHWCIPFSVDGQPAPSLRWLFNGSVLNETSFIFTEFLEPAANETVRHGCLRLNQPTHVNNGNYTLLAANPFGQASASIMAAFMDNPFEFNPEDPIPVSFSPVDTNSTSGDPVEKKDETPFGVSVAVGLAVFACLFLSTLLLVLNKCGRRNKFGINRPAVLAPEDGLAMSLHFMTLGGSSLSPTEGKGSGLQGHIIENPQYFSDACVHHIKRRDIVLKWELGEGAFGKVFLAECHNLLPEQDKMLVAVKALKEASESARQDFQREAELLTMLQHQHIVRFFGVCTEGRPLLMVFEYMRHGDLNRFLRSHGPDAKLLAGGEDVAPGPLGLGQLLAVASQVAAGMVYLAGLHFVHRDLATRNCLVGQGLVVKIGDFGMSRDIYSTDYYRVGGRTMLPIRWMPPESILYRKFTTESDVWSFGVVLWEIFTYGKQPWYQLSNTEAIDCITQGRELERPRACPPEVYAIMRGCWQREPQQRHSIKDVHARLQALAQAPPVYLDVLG
Protocol: Compounds tested were dissolved in DMSO (1 μL) and added to a white 384-well plate (Costar #3705). […] Each sample was at 5% DMSO. The plate was then incubated for 40 minutes at room temperature.

HGK = HGK (Homo sapiens, UniProt O95819); assay: HGK (MAP4K4) biochemical assay (AlphaScreen); conditions: under the test conditions employed; read-out: IC50 toward kinase HGK
Sequence of HGK (O95819 whole entry): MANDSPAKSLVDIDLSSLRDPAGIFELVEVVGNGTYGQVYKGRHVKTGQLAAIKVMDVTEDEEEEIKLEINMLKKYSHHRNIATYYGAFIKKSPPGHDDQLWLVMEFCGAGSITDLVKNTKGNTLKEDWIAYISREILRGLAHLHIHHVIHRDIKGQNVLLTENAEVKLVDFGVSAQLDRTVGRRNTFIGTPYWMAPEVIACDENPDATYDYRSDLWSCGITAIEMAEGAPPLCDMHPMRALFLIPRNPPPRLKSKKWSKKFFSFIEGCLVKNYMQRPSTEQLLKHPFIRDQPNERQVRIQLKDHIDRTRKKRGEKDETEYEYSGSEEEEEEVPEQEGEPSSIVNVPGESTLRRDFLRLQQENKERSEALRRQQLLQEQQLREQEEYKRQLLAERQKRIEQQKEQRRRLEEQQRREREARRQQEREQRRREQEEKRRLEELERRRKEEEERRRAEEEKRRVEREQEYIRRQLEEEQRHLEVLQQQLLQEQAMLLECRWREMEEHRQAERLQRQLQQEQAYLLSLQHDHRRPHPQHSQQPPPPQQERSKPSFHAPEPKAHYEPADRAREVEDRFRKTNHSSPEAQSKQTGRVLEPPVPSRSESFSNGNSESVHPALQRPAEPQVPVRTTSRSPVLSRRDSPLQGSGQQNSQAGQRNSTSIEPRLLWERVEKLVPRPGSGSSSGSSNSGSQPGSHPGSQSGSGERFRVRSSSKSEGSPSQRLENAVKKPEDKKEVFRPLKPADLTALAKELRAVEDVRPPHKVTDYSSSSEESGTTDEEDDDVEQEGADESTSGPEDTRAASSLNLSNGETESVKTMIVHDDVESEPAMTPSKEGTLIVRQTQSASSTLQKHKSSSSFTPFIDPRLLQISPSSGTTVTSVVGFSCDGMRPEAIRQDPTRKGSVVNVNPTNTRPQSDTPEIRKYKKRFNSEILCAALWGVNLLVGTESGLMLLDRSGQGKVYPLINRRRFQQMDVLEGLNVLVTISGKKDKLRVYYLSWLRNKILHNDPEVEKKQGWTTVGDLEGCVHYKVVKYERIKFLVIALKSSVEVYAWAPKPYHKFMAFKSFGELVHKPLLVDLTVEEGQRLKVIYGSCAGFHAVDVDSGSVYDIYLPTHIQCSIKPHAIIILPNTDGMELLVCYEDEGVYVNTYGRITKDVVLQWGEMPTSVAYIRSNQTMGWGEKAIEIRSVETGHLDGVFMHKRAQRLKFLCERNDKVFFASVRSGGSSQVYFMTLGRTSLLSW
Protocol: Substrate was 10 nM biotin-ERM (T567/T564/T558, Cell Signaling, Inc., cat#1344). MAP4K4 kinase was at 0.5 ng per sample. After incubation of the kinase reaction for 40 min at room temperature, 5 μl of donor beads and protein A acceptor beads (Perkin Elmer Life Science, cat#67606017) at final concentration 1 μg/ml in stop buffer (20 mM Tris, pH 7.4, 200 mM Nacl, 100 mM EDTA, 0.03% BSA) was added, along with Phospho-ERM Antibody (T567/T564/T558, Cell Signaling, Inc., cat#3141) at 1:1000 dilution. […] Phosphorylated substrate results in binding of the antibody which binds to protein A acceptor bead and association of the donor and acceptor beads is such that the signal correlates with kinase activity.

Measured: IC50

T1 sequence (P07333 20-972): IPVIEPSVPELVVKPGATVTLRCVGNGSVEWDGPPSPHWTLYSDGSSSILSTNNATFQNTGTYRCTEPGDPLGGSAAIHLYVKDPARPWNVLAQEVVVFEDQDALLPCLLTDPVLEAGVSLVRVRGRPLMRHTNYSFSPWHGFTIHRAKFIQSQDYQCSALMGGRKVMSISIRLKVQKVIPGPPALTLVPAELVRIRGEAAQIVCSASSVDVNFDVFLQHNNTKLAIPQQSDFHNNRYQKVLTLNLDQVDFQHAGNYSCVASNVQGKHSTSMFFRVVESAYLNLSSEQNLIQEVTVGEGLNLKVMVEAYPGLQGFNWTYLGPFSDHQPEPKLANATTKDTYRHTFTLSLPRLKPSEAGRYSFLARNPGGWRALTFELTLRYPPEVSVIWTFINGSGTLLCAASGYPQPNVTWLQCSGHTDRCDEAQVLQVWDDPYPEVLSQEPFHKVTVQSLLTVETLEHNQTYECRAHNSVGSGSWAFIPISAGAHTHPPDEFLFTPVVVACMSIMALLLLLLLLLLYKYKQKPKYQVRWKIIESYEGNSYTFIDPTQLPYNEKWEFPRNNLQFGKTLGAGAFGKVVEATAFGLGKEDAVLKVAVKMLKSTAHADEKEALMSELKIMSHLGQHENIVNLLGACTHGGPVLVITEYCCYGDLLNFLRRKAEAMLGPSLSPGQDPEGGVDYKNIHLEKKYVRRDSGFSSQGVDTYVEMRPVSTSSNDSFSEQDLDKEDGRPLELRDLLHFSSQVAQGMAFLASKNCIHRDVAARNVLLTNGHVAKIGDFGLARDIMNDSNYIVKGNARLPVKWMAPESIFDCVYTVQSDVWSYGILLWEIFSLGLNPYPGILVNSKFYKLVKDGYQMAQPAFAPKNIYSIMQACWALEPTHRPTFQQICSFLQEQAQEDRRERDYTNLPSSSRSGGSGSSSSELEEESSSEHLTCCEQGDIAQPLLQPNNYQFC

COc1cc(Cc2c[nH]c3ncccc23)cc(F)c1OCc1ccc(Cl)cc1 [P-1466, 3-[4-(4-Chloro-benzyloxy)-3-fluoro-5-methoxy-benzyl]-1H-pyrrolo[2,3-b]pyridine]
≤ 10 µM: Fms | B-Raf V600E | Kit

CCOc1cc(Cc2c[nH]c3ncccc23)ccc1OCc1ccc(Cl)cc1 [P-1470, 3-[4-(4-Chloro-benzyloxy)-3-ethoxy-benzyl]-1H-pyrrolo[2,3-b]pyridine]
≤ 10 µM: Fms | B-Raf V600E | Kit

Clc1ccc(COc2ccc(Cc3c[nH]c4ncccc34)c(Cl)c2)cc1 [P-1471, 3-[2-Chloro-4-(4-chloro-benzyloxy)-benzyl]-1H-pyrrolo[2,3-b]pyridine]
≤ 10 µM: Fms | B-Raf V600E | Kit

COc1cc(Cc2c[nH]c3ncccc23)ccc1OCc1c(F)cc(F)cc1F [P-1578, 3-[3-Methoxy-4-(2,4,6-trifluoro-benzyloxy)-benzyl]-1H-pyrrolo[2,3-b]pyridine]
≤ 10 µM: B-Raf V600E | Kit

COc1cc(Cc2c[nH]c3ncccc23)ccc1OCc1c(Cl)cccc1Cl [P-1579, 3-[4-(2,6-Dichloro-benzyloxy)-3-methoxy-benzyl]-1H-pyrrolo[2,3-b]pyridine]
≤ 10 µM: B-Raf V600E

COc1cc(C(=O)c2c[nH]c3ncccc23)ccc1OCc1ccc(Cl)cc1 [P-1698, [4-(4-Chloro-benzyloxy)-3-methoxy-phenyl]-(1H-pyrrolo[2,3-b]pyridin-3-yl)-methanone]
≤ 10 µM: B-Raf V600E

FC(F)(F)c1ccc(COc2ccc(Cc3c[nH]c4ncccc34)cc2C(F)(F)F)cc1 [P-1797, 3-[3-Trifluoromethyl-4-(4-trifluoromethyl-benzyloxy)-benzyl]-1H-pyrrolo[2,3-b]pyridine]
≤ 10 µM: B-Raf V600E

Fc1cc(Cc2c[nH]c3ncc(Cl)cc23)c(Cl)cc1OCc1nc2ccccc2[nH]1 [P-2099, 2-[5-Chloro-4-(5-chloro-1H-pyrrolo[2,3-b]pyridin-3-ylmethyl)-2-fluoro-phenoxymethyl]-1H-benzoimidazole]
≤ 10 µM: Fms | TrkA | HGK

COc1cc(Cc2c[nH]c3ncccc23)c(Cl)cc1OCc1nc2ccccc2[nH]1 [P-2103, 2-[5-Chloro-2-methoxy-4-(1H-pyrrolo[2,3-b]pyridin-3-ylmethyl)-phenoxymethyl]-1H-benzoimidazole]
≤ 10 µM: Fms | TrkA | HGK

COc1cc(Cc2c[nH]c3ncc(Cl)cc23)c(Cl)cc1OCc1nc2ccccc2[nH]1 [P-2104, 2-[5-Chloro-4-(5-chloro-1H-pyrrolo[2,3-b]pyridin-3-ylmethyl)-2-methoxy-phenoxymethyl]-1H-benzoimidazole]
≤ 10 µM: Fms | TrkA | HGK

COc1cc(Cc2c[nH]c3ncc(Cl)cc23)c(F)cc1OCc1nc2ccccc2n1C [P-2106, 2-[4-(5-Chloro-1H-pyrrolo[2,3-b]pyridin-3-ylmethyl)-5-fluoro-2-methoxy-phenoxymethyl]-1-methyl-1H-benzoimidazole]
not listed: B-Raf V600E
≤ 10 µM: all other assays above

COc1cc(Cc2c[nH]c3ncc(Cl)cc23)c(F)cc1OC(C)c1nc2ccccc2[nH]1 (stereo not shown) [P-2110, 2-{1-[4-(5-Chloro-1H-pyrrolo[2,3-b]pyridin-3-ylmethyl)-5-fluoro-2-methoxy-phenoxy]-ethyl}-1H-benzoimidazole]
not listed: B-Raf V600E
≤ 10 µM: all other assays above

COc1cc(Cc2c[nH]c3ncc(Cl)cc23)c(F)cc1OCc1nc2cc(Cl)ccc2[nH]1 [P-2111, 6-Chloro-2-[4-(5-chloro-1H-pyrrolo[2,3-b]pyridin-3-ylmethyl)-5-fluoro-2-methoxy-phenoxymethyl]-1H-benzoimidazole]
not listed: B-Raf V600E
≤ 10 µM: all other assays above

COc1cc(Cc2c[nH]c3ncccc23)c(F)cc1OCc1nc2ccc(Cl)cc2[nH]1 [P-2112, 6-Chloro-2-[5-fluoro-2-methoxy-4-(1H-pyrrolo[2,3-b]pyridin-3-ylmethyl)-phenoxymethyl]-1H-benzoimidazole]
not listed: B-Raf V600E
≤ 10 µM: all other assays above

COc1cc(Cc2c[nH]c3ncc(F)cc23)c(F)cc1OCc1nc2ccccc2[nH]1 [P-2115, 2-[5-Fluoro-4-(5-fluoro-1H-pyrrolo[2,3-b]pyridin-3-ylmethyl)-2-methoxy-phenoxymethyl]-1H-benzoimidazole]
≤ 10 µM: Fms | TrkA | HGK

COc1cnc2[nH]cc(Cc3cc(Cl)c(OCc4nc5ccccc5[nH]4)cc3F)c2c1 [P-2116, 2-[2-Chloro-5-fluoro-4-(5-methoxy-1H-pyrrolo[2,3-b]pyridin-3-ylmethyl)-phenoxymethyl]-1H-benzoimidazole]
≤ 10 µM: Fms | TrkA | HGK

COc1cc(Cc2c[nH]c3ncc(C#N)cc23)c(F)cc1OCc1nc2ccccc2[nH]1 [P-2171, 3-[4-(1H-Benzoimidazol-2-ylmethoxy)-2-fluoro-5-methoxy-benzyl]-1H-pyrrolo[2,3-b]pyridine-5-carbonitrile]
≤ 10 µM: Fms | TrkA | HGK

COc1cc(Cc2c[nH]c3ncc(Cl)cc23)c(F)cc1OCc1nc2cc(Cl)c(Cl)cc2[nH]1 [P-2172, 5,6-Dichloro-2-[4-(5-chloro-1H-pyrrolo[2,3-b]pyridin-3-ylmethyl)-5-fluoro-2-methoxy-phenoxymethyl]-1H-benzoimidazole]
not listed: B-Raf V600E
≤ 10 µM: all other assays above

COC(=O)c1cnc2[nH]cc(Cc3cc(OC)c(OCc4nc5ccccc5[nH]4)cc3F)c2c1 [P-2174, 3-[4-(1H-Benzimidazol-2-ylmethoxy)-2-fluoro-5-methoxy-benzyl]-1H-pyrrolo[2,3-b]pyridine-5-carboxylic acid methyl ester]
not listed: B-Raf V600E
≤ 10 µM: all other assays above

COc1cc(Cc2c[nH]c3ncc(C(=O)O)cc23)c(F)cc1OCc1nc2ccccc2[nH]1 [P-2175, 3-[4-(1H-Benzoimidazol-2-ylmethoxy)-2-fluoro-5-methoxy-benzyl]-1H-pyrrolo[2,3-b]pyridine-5-carboxylic acid]
≤ 10 µM: Fms | TrkA | HGK

COc1cc(Cc2c[nH]c3ncc(Cl)cc23)c(F)cc1OCc1nc2cc(C(F)(F)F)ccc2[nH]1 [P-2178, 2-[4-(5-Chloro-1H-pyrrolo[2,3-b]pyridin-3-ylmethyl)-5-fluoro-2-methoxy-phenoxymethyl]-5-trifluoromethyl-1H-benzoimidazole]
not listed: B-Raf V600E
≤ 10 µM: all other assays above

COc1cc(Cc2c[nH]c3ncc(Cl)cc23)c(F)cc1OCCc1nc2ccccc2[nH]1 [P-2180, 2-{2-[4-(5-Chloro-1H-pyrrolo[2,3-b]pyridin-3-ylmethyl)-5-fluoro-2-methoxy-phenoxy]-ethyl}-1H-benzoimidazole]
not listed: B-Raf V600E
≤ 10 µM: all other assays above

COc1ccc2[nH]c(COc3cc(F)c(Cc4c[nH]c5ncc(Cl)cc45)cc3OC)nc2c1 [P-2182, 2-[4-(5-Chloro-1H-pyrrolo[2,3-b]pyridin-3-ylmethyl)-5-fluoro-2-methoxy-phenoxymethyl]-5-methoxy-1H-benzoimidazole]
≤ 10 µM: Fms | TrkA | HGK
